In patent publication US7601850B2, “Phenyl-thiophene type vitamin D receptor modulators” (Eli Lilly and Company, priority 2002, dated 2009):

System: rat osteocalcin promoter
Test: OCN (osteocalcin) promoter assay in RG-15 (ROS 17/2.8) cells
Assay type: cell-based
Conditions: not given
Procedure: 4. The OCN Promoter test is described in the “Assay” section of the Description, infra.
3. The OCN (Osteocalcin) Promoter Assay
The OCN Promoter Assay is an indicator and marker for osteoporosis. Desired assay results are EC50 less than or equal to 325 nM. Preferred assay results are less than 50 nM.
(3) Materials and Method for The OCN Promoter Assay:
The activation of osteocalcin by VDR ligands was evaluated in a rat osteoblast-like cell line RG-15 (ROS 17/2.8) stably expressing rat osteocalcin promoter fused with luciferase reporter gene. The stable cell lines were established as reported before (Activation of Osteocalcin Transcription involves interaction of protein kinase A- and Protein kinase C-dependent pathways. Boguslawski, G., Hale, L. V., Yu, X.-P., Miles, R. R., Onyia, J. E., Santerre R. F., Chandrasekhar, S. J Biol. Chem. 275, 999-1006, 2000). Confluent RG-15 cells maintained in DMEM/F-12 medium (3:1) containing 5% FBS, 300 µg/ml G418 and at 37° C. under 5% CO2/95% air atmosphere were trypsinized (0.25% trypsin) and plated into white opaque 96-well cell culture plates (25000 cells/well). After 24 hr, cells (in DMEM/F-12 medium+2% FBS) were treated with various concentrations of compounds, dissolved in DMSO. The final DMSO concentration remained at 0.01% (v/v). After 48 hr treatment, the medium was removed, cells were lysed with 50 µl of lysis buffer (From Luciferase reporter assay system, Roche Diagnostics, Indianapolis, Ind.) and assayed for luciferase activity using the Luciferase Reporter Gene Assay kit from Boehringer Mannheim as per manufacturer's specifications.

SMILES	EC50 [nM]
CCC(CC)(c1ccc(OCC(O)C(C)(C)C)c(C)c1)c1cc(C)c(C(=O)Nc2nnn[nH]2)s1 (single isomer, unassigned) [Ex. 37, 3′-[4-(2-hydroxy-3,3-dimethylbutoxy)-3-methylphenyl]-3′-[5-(tetrazol-5-yl-aminocarbonyl)-4-methylthiophen-2-yl]pentane]	240
CCC(CC)(c1ccc(OCC(O)C(C)(C)C)c(C)c1)c1cc(C)c(C(=O)NCCS(C)(=O)=O)s1 (single isomer, unassigned) [Ex. 40, 5-[1-ethyl-1-[4-(2-hydroxy-3,3-dimethyl-butoxy)-3-methylphenyl]propyl]-3-methylthiophene-2-carboxylic acid (2-methylsulfonyl-ethyl) amide]	613
CCC(CC)(c1ccc(OCC(O)C(C)(C)C)c(C)c1)c1cc(C)c(C(=O)N[C@@H](C)C(=O)OC)s1 (single isomer, unassigned) [Ex. 54, L-2-[(5-{1-Ethyl-1-[4-(2-hydroxy-3,3-dimethyl-butoxy)-3-methyl-phenyl]-propyl}-3-methyl-thiophene-2-carbonyl)amino]propionic acid methyl ester]	27.5
CCC(CC)(c1ccc(OCC(O)C(C)(C)C)c(C)c1)c1cc(C)c(C(=O)N[C@H](C)C(=O)OC)s1 (single isomer, unassigned) [Ex. 56, D-2-[(5-{1-Ethyl-1-[4-(2-hydroxy-3,3-dimethyl-butoxy)-3-methyl-phenyl]-propyl}-3-methyl-thiophene-2-carbonyl)-amino]-propionic acid methyl ester]	164
CCC(CC)(c1ccc(OCC(O)C(C)(C)C)c(C)c1)c1cc(C)c(C(=O)N[C@@H](C)C(=O)OC)s1 (single isomer, unassigned) [Ex. 64, L-2-[(5-{1-Ethyl-1-[4-(2-hydroxy-3,3-dimethyl-butoxy)-3-methyl-phenyl]-propyl}-3-methyl-thiophene-2-carbonyl)-amino]-propionic acid methyl ester]	4.1
CCC(CC)(c1ccc(OCC(O)C(C)(C)C)c(C)c1)c1cc(C)c(C(=O)NC(C)(C)C(=O)OC)s1 (single isomer, unassigned) [Ex. 70, 2-[(5-{1-Ethyl-1-[4-(2-hydroxy-3,3-dimethyl-butoxy)-3-methyl-phenyl]-propyl}-3-methyl-thiophene-2-carbonyl)-amino]-2-methyl-propionic acid methyl ester]	25.8
CCC(CC)(c1ccc(OCC(O)C(C)(C)C)c(C)c1)c1cc(C)c(C(=O)N2CCC[C@H]2C(=O)OC)s1 (single isomer, unassigned) [Ex. 72, L-1-(5-{1-Ethyl-1-[4-(2-hydroxy-3,3-dimethyl-butoxy)-3-methyl-phenyl]-propyl}-3-methyl-thiophene-2-carbonyl)pyrrolidine-2-carboxylic acid methyl ester]	219
CCC(CC)(c1ccc(OCC(O)C(C)(C)C)c(C)c1)c1cc(C)c(C(=O)N2CCC[C@H]2C(=O)OC)s1 (single isomer, unassigned) [Ex. 74, L-1-(5-{1-Ethyl-1-[4-(2-hydroxy-3,3-dimethyl-butoxy)-3-methyl-phenyl]-propyl}-3-methyl-thiophene-2-carbonyl)-pyrrolidine-2-carboxylic acid methyl ester]	479
CCC(CC)(c1ccc(OCC(O)C(C)(C)C)c(C)c1)c1cc(C)c(C(=O)NC(C)(C)C(=O)OC)s1 (single isomer, unassigned) [Ex. 76, 2-[(5-{1-Ethyl-1-[4-(2-hydroxy-3,3-dimethyl-butoxy)-3-methyl-phenyl]-propyl}-3-methyl-thiophene-2-carbonyl)-amino]-2-methyl-propionic acid methyl ester]	57.8
CCC(CC)(c1ccc(OCC(C)(O)C(C)(C)C)c(C)c1)c1ccc(C(=O)O)s1 (single isomer, unassigned) [Ex. 105, 3′-[4-(2-hydroxy-2,3,3-trimethylbutoxy)-3-methylphenyl]-3′-[5-carboxy-thiophen-2-yl]pentane]	736
CCCc1cc(C(CC)(CC)c2ccc(C(=O)O)s2)ccc1OCC(C)(O)C(C)(C)C (single isomer, unassigned) [Ex. 112, 3′-[4-(2-hydroxy-2,3,3-trimethylbutoxy)-3-n-propylphenyl]-3′-[5-carboxy-thiophen-2-yl]pentane]	5

Same assay, conditions: Rattus norvegicus

SMILES	EC50 [nM]
CCC(CC)(c1ccc(OCC(O)C(C)(C)C)c(C)c1)c1cc(C)c(C(=O)N[C@@H](CC(=O)OC)C(=O)OC)s1 (single isomer, unassigned) [Ex. 58, L-2-[(5-{1-ethyl-1-[4-(2-hydroxy-3,3-dimethyl-butoxy)-3-methyl-phenyl]-propyl}-3-methyl-thiophene-2-carbonyl)-amino]-succinic acid dimethyl ester]	277
CCC(CC)(c1ccc(OCC(O)C(C)(C)C)c(C)c1)c1cc(C)c(C(=O)N2CCC[C@H]2C(=O)O)s1 (single isomer, unassigned) [Ex. 73, L-1-(5-{1-Ethyl-1-[4-(2-hydroxy-3,3-dimethyl-butoxy)-3-methyl-phenyl]-propyl}-3-methyl-thiophene-2-carbonyl)pyrrolidine-2-carboxylic acid]	266
CCC(CC)(c1ccc(OCC(O)C(C)(C)C)c(C)c1)c1cc(C)c(C(=O)N(C)CC(=O)O)s1 (single isomer, unassigned) [Ex. 122, N-methyl-2-[(5-{1-ethyl-1-[4-(2-hydroxy-3,3-dimethyl-butoxy)-3-methyl-phenyl]-propyl}-3-methyl-thiophene-2-carbonyl)-methylamino]-acetic acid]	67.5
Cc1cc(C2(c3ccc(OCC(=O)C(C)(C)C)c(C)c3)CCCCC2)ccc1OCC(=O)C(C)(C)C [CC, 1-(4-{1-[4-(3,3-Dimethyl-2-oxo-butoxy)-3-methyl-phenyl]-cyclohexyl}-2-methyl-phenoxy)-3,3-dimethyl-butan-2-one, reference compound]	> 1000
CCC(CC)(c1ccc(OCC(O)C(C)(C)C)c(C)c1)c1cc(C)c(C(=O)NCCS(C)(=O)=O)s1 (stereo not drawn) [Ex. 38, 5-[1-ethyl-1-[4-(2-hydroxy-3,3-dimethyl-butoxy)-3-methylphenyl]propyl]-3-methylthiophene-2-carboxylic acid (2-methylsulfonyl-ethyl) amide]	380

The remaining lines, values ahead:

EC50 [nM]	SMILES
9.9	CCC(CC)(c1ccc(C(=O)NCC(=O)OC)c(C)c1)c1cc(C)c(CCC(O)C(C)(C)C)s1 (single isomer, unassigned) [Ex. 25A]
49.1	CCC(CC)(c1ccc(C(=O)NCC(=O)O)c(C)c1)c1cc(C)c(CCC(O)C(C)(C)C)s1 (single isomer, unassigned) [Ex. 27]
0.76	CCOC(=O)CCc1ccc(C(CC)(CC)c2cc(C)c(CCC(O)C(C)(C)C)s2)cc1C (single isomer, unassigned) [Ex. 28]
11.2	CCC(CC)(c1ccc(CCC(=O)O)c(C)c1)c1cc(C)c(CCC(O)C(C)(C)C)s1 (single isomer, unassigned) [Ex. 30A]
111	CCC(CC)(c1ccc(OCC(O)C(C)(C)C)c(C)c1)c1cc(C)c(CO)s1 (single isomer, unassigned) [Ex. 126]
92.6	CCC(CC)(c1ccc(OCC(O)C(C)(C)C)c(C)c1)c1cc(C)c(-c2n[nH]c(=O)o2)s1 (single isomer, unassigned) [Ex. 171]
140	CCC(CC)(c1ccc(OCC(=O)C(C)(C)C)c(C)c1)c1cc(C)c(C(=O)OC)s1 [Ex. 1]
313	CCC(CC)(c1ccc(OCS(C)(=O)=O)c(C)c1)c1cc(C)c(CCC(=O)C(C)(C)C)s1 [Ex. 13]
46.6	CCC(CC)(c1ccc(OCS(C)(=O)=O)c(C)c1)c1cc(C)c(CC[C@@H](O)C(C)(C)C)s1 [Ex. 14]
862	CCC(CC)(c1ccc(C(=O)OC)c(C)c1)c1cc(C)c(CCC(=O)C(C)(C)C)s1 [Ex. 20]
140	CCC(CC)(c1ccc(C(=O)OC)c(C)c1)c1cc(C)c(CCC(O)C(C)(C)C)s1 (stereo not drawn) [Ex. 21]
4.7	CCC(CC)(c1ccc(C(=O)NCC(=O)OC)c(C)c1)c1cc(C)c(CCC(O)C(C)(C)C)s1 (stereo not drawn) [Ex. 24]
7.95	CCC(CC)(c1ccc(C(=O)NCC(=O)O)c(C)c1)c1cc(C)c(CCC(O)C(C)(C)C)s1 (stereo not drawn) [Ex. 26]
7.8	CCC(CC)(c1ccc(OCC(=O)OC)c(C)c1)c1cc(C)c(CCC(O)C(C)(C)C)s1 (stereo not drawn) [Ex. 31]
9.35	CCC(CC)(c1ccc(OCC(=O)O)c(C)c1)c1cc(C)c(CCC(O)C(C)(C)C)s1 (stereo not drawn) [Ex. 32]
300	CCC(CC)(c1ccc(OCC(=O)C(C)(C)C)c(C)c1)c1cc(C)c(C(=O)NCCS(C)(=O)=O)s1 [Ex. 41, 5-{1-[4-(3,3-Dimethyl-2-oxo-butyoxy)-3-methyl-phenyl]-1-ethyl-propyl}-3-methyl-thiophene-2-carbolic acid (2-methanesulfonyl-ethyl]-amide]
33.5	CCC(CC)(c1ccc(OCC(O)C(C)(C)C)c(C)c1)c1cc(C)c(C(=O)N(C)OC)s1 (stereo not drawn) [Ex. 42, 5-{1-Ethyl-1-[4-(2-hydroxy-3,3-dimetliyl-butyoxy)-3-methyl-phenyl]-propyl}-3methyl-thiophene-2-carboxylic acid methoxy-methyl-amide]
